Data from ChEMBL document CHEMBL2073898, “Overexpression of the BCRP/MXR/ABCP gene in a topotecan-selected ovarian tumor cell line” (Cancer Res, 1999).

What was measured:
[1] = target: T1, Broad substrate specificity ATP-binding cassette transporter ABCG2 (Homo sapiens, UniProt Q9UNQ0); experiment: TP_TRANSPORTER: intracellular concentration of the drug is lower compared with IGROV1 in T8 cells; assay type: functional, cell-based
T1 sequence (Q9UNQ0 whole entry): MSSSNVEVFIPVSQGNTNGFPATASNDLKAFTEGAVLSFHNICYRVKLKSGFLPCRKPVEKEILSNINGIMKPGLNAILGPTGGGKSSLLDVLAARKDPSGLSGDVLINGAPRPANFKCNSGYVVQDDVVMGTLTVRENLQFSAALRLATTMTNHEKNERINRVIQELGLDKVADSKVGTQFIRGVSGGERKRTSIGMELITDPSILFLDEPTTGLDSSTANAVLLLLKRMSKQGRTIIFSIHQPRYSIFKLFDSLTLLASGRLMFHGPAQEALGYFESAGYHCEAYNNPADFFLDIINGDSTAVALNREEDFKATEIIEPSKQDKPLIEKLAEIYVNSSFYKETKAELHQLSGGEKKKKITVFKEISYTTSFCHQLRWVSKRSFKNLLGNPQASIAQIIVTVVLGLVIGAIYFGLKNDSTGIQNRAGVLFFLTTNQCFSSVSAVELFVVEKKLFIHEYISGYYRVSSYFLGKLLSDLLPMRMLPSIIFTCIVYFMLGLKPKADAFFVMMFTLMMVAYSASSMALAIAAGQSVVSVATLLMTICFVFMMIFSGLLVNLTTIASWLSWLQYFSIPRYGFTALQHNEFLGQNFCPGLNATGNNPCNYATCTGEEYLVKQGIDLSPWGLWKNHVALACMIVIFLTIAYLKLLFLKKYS

[2] = target: T1, Broad substrate specificity ATP-binding cassette transporter ABCG2; experiment: TP_TRANSPORTER: intracellular concentration of the drug is lower compared with IGROV1 in MX3 cells; assay type: functional, cell-based

With `CC[C@@]1(O)C(=O)OCc2c1cc1n(c2=O)Cc2cc3c(CN(C)C)c(O)ccc3nc2-1` [TOPOTECAN] the Activity [1] was “substrate [+]” and the Activity [2] was “substrate [+]”.
